Literature values as cited in patent US20190175510A1, “PHARMACEUTICAL MATRIX FORMULATIONS COMPRISING DIMETHYL FUMARATE” (BIOGEN MA INC., priority 2014, published 2019).
Where a name gives a salt, the structure may show the parent alone.

Conditions: species not stated

COC(=O)/C=C/C(=O)O [MMF, monomethyl fumarate]
half-life of MMF: approximately 1 hour
